# According to US8592415B2, “Selective kinase inhibitors” (Reaction Biology Corp., priority 2009, dated 2013):
# Legend:
# [1] = test system: adjuvant-induced arthritis; conditions: rat; cited from earlier work
# [2] = test system: collagen-induced arthritis; conditions: rat; cited from earlier work
# JAK1 = JAK1 (Homo sapiens, UniProt P23458); experiment: In vitro JAK kinase enzymatic assay (JAK1); assay type: biochemical
# Method: (§1) The JAK3 kinase is recombinant human protein (catalytic domain, amino acids 781-1124 with GST-tag), expressed in insect cells (Invitrogen Catalog PV3855). The substrate is poly-glutamic acid-tyrosin peptide, Poly-(GT) (4:1) (Sigma-Aldrich, catalog P7244). [γ-^33P]-ATP is purchased from Perkin Elmer (catalog NEG602H001MC) (EasyTides). Kinase reaction buffer is 100 mM HEPES (pH 7.5), 20 mM MgCl2, 2 mM EGTA, 0.02% Brij 35. The JAK1 (Invitrogen Catalog PV4774), JAK2 (Invitrogen Catalog PV4210) and TYK2 Invitrogen Catalog PV4790) enzymatic assays are performed in the similar way. JAK1 and JAK2 substrate is Poly-(GT) (4:1), but TYK2 substrate is peptide with sequences of […]. The reaction is carried for 2 hours at room temperature. After the reactions are finished or stopped, portion or all the reaction mixtures are transferred onto filter paper P81 Phosphocellulose paper (Whatman catalog 3698-915) for binding the final radioisotope labeled products. The unreacted phosphate are washed away without interfering with the detection of real phosphorylated products. The final product can be detected by instruments such as scintillation counter, top counter or phosphoimager. The enzymatic assays can also performed in assays described those described in the art [e.g., Ma H et al, Expert Opin. Drug Discov. 3, 607-621 (2008); Olive D M, Expert Rev Proteomics, 1, 327-341 (2004)].
# (§2) Signal=Bottom+(Top−Bottom)/(1+10^((Log(IC50)−Log [I])*Hill Slope) Bottom and Top refer to the post and pre-transition baselines, respectively.
# TYK2 = TYK2 (Homo sapiens (Human), UniProt P29597); experiment: In vitro JAK kinase enzymatic assay (TYK2); assay type: biochemical
# Method: as §1, §2
# JAK2 [3] = target: JAK2 (Homo sapiens, UniProt O60674); experiment: In vitro JAK kinase enzymatic assay (JAK2); assay type: biochemical
# Method: as §1, with “The” for “The JAK3 kinase is recombinant human protein (catalytic domain, amino acids 781-1124 with GST-tag), expressed in insect cells (Invitrogen Catalog PV3855). The”, “After the reactions are finished or stopped, portion or all the reaction mixtures are transferred onto filter paper P81 Phosphocellulose paper (Whatman catalog 3698-915) for binding the final radioisotope labeled products.” left out, “Discov.” for “Discov. 3, 607-621 (2008); Olive D M, Expert Rev Proteomics, 1, 327-341 (2004)].”
# as §2
# JAK2 [4] = experiment: In vitro JAK kinase enzymatic assay (JAK2); assay type: biochemical
# Method: as §1, with “The” for “The JAK3 kinase is recombinant human protein (catalytic domain, amino acids 781-1124 with GST-tag), expressed in insect cells (Invitrogen Catalog PV3855). The”, “After the reactions are finished or stopped, portion or all the reaction mixtures are transferred onto filter paper P81 Phosphocellulose paper (Whatman catalog 3698-915) for binding the final radioisotope labeled products.” left out, “Discov.” for “Discov. 3, 607-621 (2008); Olive D M, Expert Rev Proteomics, 1, 327-341 (2004)].”
# as §2
# JAK3 phosphorylation = JAK3 phosphorylation detection by immunoprecipitation and Western blot; assay type: cell-based, human; conditions: 0.8 μM compound with IL-2; IL-2 alone more than 12-fold
# Method: Cell lines: The SZ-4 cell line is derived from a Sézary patient (Abrams, et al., 1991, J Investig Dermatol. 96, 31-37), and the growth of this cell line is IL-2 dependent. The cells are grown in RPMI 1640 medium supplemented with 10% fetal calf serum, 2 mM L-glutamine, penicillin 100 U/ml, streptomycin 100 ug/ml, and 10 I.U/ml IL-2 in a 5% CO2 humidified incubator at 37° C.
# Protein and phosphorylation detection by immunoprecipitation and Western Blot: the above cells is used to evaluate the compounds activities of inhibiting JAK/STAT phosphorylations. After the cells are treated as described above, cells are collected and pelleted by centrifuging, cell pellets are then lysed with PI/RIPA lysis buffer (1% NP40, 1% Deoxycholic Acid, 0.1% SDS, 0.15M NaCl, 10 mM Sodium Phosphate, 1 mM PMSF, 2 mM EDTA, 10 mM NaF, 10 mM Napyrophosphate, 0.4 mM Na3VO4, 10 mM Indoacetamide, PH, 8.0) on ice. The lysed cells are centrifuged at 15,000 rpm to remove cell debris, add 5 ul of Anti-Phosphotyrosine, 4G10® Platinum (Upstate Biotechnology, Lake Placid, N.Y.), and incubate for 90 min on ice. Then, the protein A-Sepharose (Invitrogen, Carlsbad, Calif.) is added to precipitate the immune complexes for 1 hr at 4° C. The immunoprecipitates are washed 3× with lysis buffer, and suspended in loading buffer. […]
# JAK3 [5] = target: T1, JAK3 (Homo sapiens (Human), UniProt P52333); experiment: In vitro JAK kinase enzymatic assay (JAK3); assay type: biochemical
# Method: as §1, §2
# Target sequence in this assay (P52333 781-1124): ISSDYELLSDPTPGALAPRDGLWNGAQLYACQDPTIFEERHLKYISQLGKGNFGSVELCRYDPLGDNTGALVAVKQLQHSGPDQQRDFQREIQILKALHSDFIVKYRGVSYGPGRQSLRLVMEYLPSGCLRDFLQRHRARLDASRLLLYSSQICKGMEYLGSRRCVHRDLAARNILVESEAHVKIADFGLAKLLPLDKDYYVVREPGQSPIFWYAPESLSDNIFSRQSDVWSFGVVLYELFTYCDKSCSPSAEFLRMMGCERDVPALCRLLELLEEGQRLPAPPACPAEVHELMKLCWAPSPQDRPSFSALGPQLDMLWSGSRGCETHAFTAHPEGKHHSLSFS
# SZ-4 cells = experiment: IL-2 dependent cell proliferation assay (MTT); assay type: cell-based; conditions: Homo sapiens, 72 hr, IL-2, MTT, read-out: IC50, inhibition of proliferation
# Source text: The number of surviving cells is directly proportional to the level of the formazan product created.
# JAK3 [6] = target: T1, JAK3; conditions: cited from earlier work
# Target sequence in this assay (P52333 whole entry): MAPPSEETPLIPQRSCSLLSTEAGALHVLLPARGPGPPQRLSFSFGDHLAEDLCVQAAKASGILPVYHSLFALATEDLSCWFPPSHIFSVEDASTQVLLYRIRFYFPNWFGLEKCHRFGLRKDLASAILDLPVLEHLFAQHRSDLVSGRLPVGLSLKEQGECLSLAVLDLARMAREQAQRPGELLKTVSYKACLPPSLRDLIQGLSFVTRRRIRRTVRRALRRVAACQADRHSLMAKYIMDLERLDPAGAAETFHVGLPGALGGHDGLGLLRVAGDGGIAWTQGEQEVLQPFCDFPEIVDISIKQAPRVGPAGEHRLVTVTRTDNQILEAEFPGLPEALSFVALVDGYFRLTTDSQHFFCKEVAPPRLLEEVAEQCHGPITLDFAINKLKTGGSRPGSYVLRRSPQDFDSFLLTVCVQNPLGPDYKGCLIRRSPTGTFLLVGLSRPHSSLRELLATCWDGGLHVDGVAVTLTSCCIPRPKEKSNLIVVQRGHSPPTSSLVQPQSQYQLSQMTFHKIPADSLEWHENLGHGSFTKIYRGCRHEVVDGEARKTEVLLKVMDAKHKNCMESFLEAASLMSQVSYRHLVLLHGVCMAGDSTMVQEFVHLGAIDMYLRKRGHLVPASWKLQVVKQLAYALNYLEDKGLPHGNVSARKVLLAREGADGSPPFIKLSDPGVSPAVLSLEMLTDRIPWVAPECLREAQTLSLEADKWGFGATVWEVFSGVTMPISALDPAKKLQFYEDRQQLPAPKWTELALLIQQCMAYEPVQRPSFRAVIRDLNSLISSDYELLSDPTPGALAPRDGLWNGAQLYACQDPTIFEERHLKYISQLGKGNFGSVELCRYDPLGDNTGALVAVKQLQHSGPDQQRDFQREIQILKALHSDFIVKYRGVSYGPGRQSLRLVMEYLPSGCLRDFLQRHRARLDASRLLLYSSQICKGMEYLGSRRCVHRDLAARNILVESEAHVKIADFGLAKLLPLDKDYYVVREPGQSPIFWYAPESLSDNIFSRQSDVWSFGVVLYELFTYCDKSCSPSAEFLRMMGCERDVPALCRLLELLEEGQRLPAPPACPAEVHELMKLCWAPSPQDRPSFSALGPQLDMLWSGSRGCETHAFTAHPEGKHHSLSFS
# [7] = test system: amyotrophic lateral sclerosis (ALS); conditions: transgenic mouse model of ALS; cited from earlier work
# [8] = test system: myeloid dendritic cells (DCs); conditions: cited from earlier work
# [9] = test system: autoimmune type I diabetes; conditions: NOD mouse; cited from earlier work
# JAK2 (Homo sapiens, UniProt O60674), sequence (O60674 whole entry, looked up, the tested form may be a part): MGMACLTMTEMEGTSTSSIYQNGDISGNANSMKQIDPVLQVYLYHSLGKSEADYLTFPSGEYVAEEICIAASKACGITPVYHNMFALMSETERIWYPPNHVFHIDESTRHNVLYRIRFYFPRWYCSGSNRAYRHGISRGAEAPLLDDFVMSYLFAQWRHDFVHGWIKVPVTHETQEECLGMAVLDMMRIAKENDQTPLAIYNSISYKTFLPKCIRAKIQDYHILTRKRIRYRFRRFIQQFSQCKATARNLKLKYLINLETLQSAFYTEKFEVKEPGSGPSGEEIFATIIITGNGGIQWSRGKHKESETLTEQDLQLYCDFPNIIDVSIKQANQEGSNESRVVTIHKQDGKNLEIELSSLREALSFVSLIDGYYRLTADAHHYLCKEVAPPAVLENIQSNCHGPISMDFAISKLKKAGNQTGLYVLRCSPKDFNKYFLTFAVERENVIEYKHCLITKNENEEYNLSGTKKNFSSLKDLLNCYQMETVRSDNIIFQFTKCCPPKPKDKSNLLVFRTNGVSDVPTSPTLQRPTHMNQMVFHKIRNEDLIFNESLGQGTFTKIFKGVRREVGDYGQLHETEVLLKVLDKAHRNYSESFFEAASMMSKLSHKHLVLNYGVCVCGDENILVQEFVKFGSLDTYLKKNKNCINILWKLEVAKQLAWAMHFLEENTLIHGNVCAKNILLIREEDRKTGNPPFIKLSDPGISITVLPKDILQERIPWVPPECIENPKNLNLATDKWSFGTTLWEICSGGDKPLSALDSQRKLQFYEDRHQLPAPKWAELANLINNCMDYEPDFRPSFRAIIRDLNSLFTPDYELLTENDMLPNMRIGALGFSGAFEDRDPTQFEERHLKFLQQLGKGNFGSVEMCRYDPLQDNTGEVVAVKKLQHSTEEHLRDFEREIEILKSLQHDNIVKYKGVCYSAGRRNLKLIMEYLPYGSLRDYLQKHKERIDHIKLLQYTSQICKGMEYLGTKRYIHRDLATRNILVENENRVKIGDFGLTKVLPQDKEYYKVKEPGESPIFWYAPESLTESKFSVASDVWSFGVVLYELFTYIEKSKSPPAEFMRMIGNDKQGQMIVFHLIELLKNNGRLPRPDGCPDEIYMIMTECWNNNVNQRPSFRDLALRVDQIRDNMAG
# TYK2, sequence (P29597 whole entry): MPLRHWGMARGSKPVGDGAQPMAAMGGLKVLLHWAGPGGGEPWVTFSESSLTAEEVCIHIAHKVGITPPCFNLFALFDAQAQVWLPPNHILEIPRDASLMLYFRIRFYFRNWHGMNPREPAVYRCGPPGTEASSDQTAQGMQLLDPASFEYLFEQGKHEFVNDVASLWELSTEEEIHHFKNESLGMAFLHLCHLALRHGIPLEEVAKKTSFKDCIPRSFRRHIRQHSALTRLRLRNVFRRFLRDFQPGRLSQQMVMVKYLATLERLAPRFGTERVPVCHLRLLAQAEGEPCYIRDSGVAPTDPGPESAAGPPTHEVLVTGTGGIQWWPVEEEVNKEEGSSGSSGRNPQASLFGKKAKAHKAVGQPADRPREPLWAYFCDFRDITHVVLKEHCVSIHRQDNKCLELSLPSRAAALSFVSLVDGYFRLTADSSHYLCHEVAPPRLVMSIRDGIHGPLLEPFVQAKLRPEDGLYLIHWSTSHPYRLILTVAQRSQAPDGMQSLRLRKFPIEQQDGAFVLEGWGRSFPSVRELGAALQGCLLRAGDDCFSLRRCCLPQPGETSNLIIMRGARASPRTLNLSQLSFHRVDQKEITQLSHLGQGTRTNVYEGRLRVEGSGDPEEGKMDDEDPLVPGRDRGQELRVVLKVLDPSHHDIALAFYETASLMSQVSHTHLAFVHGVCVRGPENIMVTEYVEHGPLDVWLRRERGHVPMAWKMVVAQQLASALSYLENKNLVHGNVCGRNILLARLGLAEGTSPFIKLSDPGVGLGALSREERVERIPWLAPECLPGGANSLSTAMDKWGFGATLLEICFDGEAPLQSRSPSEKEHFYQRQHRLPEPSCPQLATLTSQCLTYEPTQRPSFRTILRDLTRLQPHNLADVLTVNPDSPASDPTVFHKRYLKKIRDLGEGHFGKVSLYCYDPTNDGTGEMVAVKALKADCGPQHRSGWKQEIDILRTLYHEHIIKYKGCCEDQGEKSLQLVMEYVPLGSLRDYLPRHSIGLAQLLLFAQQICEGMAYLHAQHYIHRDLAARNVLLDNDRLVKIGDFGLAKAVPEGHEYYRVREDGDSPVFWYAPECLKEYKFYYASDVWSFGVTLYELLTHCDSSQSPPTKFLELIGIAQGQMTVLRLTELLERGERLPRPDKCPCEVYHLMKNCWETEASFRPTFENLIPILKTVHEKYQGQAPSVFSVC
IC50 (JAK1) [µM],IC50 (TYK2) [µM],IC50 (JAK2 [3]) [µM],IC50 (JAK2 [4]) [µM],IC50 (JAK3 [5]) [µM],Structure (SMILES),other results
,,,,,C[C@@H]1CCN(C(=O)CC#N)C[C@@H]1N(C)c1ncnc2[nH]ccc12 [CP-690550],effect in adjuvant-induced arthritis [1]: therapeutic effects; effect in collagen-induced arthritis [2]: therapeutic effects
> 20,> 20,> 10,> 20,0.0002,"O=C(CCl)Nc1cccc(-c2cnc3ccccc3n2)c1 [Example 1, 2-chloro-N-(3-quinoxalin-2-ylphenyl)acetamide]",JAK3 phosphorylation level increase above background level (JAK3 phosphorylation): about 2 fold; IC50 (SZ-4 cells): 0.0003 µM
,,,,,COc1cc2ncnc(Nc3ccc(O)cc3)c2cc1OC [WHI-P131],JAK3 IC50s (JAK3 [6]): low μM ranges; survival [7]: increased survival
,,,,,COc1cc2ncnc(Nc3ccc(O)c(Br)c3)c2cc1OC [WHI-P-154],effect on CD40-induced DC maturation [8]: prevented these effects
> 20,> 20,> 10,> 20,0.175,"O=C(CN1CCCCC1)Nc1cccc(-c2cnc3ccccc3n2)c1 [Example 9, 2-(piperidin-1-yl)-N-[3-(quinoxalin-2-yl)phenyl]acetamide]",
> 20,> 20,> 10,18,0.27,"O=C(CN1CCN(c2ccccc2)CC1)Nc1cccc(-c2cnc3ccccc3n2)c1 [Example 16, 2-(4-phenylpiperazin-1-yl)-N-[3-(quinoxalin-2-yl)phenyl]acetamide]",IC50 (SZ-4 cells): 0.27 µM
,,,,,COc1cc2ncnc(Nc3ccc(O)cc3)c2cc1OC [JANEX-1],onset of diabetes [9]: delayed the onset of diabetes
> 20,> 20,> 10,18.1,0.136,"N#CCC(=O)Nc1cccc(-c2cnc3ccccc3n2)c1 [Example 8, 2-cyano-N-[3-(quinoxalin-2-yl)phenyl]acetamide]",
